How the values were obtained:
Assay in all cases: Weeding effect in post-emergence stage
Type in all cases: in vivo
Conditions in all cases: level of fresh weight growth control rate
Echinochloa crusgalli = test system: Echinochloa crusgalli
Method in brief: (§1)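 Seeds are sown in soil-filled pots under 0.5-2 cm soil and grown 2 weeks in greenhouse. Plants at 2-3 leaves are sprayed with compound (acetone, Tween 80, 1.5 liter/ha methyl oleate EC, water) at 7.5 to 500 g/ha. Damage is rated 3 weeks later, averaging three repeats.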

Setaria viridis = test system: Setaria viridis
Method in brief: as §1

Abutilon theophrasti = test system: Abutilon theophrasti
Method in brief: as §1

Digitaria sanguinalis = test system: Digitaria sanguinalis
Method in brief: as §1

Eleusine indica = test system: Eleusine indica
Method in brief: as §1

Alopecurus japonicus = test system: Alopecurus japonicus
Method in brief: as §1

SMILES	Weeding effect in post-emergence stage, Echinochloa crusgalli (Echinochloa crusgalli; Dose 15 g/ha)	Weeding effect in post-emergence stage, Setaria viridis (Setaria viridis; Dose 15 g/ha)	Weeding effect in post-emergence stage, Abutilon theophrasti (Abutilon theophrasti; Dose 15 g/ha)	Weeding effect in post-emergence stage, Digitaria sanguinalis (Digitaria sanguinalis; Dose 15 g/ha)	Weeding effect in post-emergence stage, Eleusine indica (Eleusine indica; Dose 15 g/ha)	Weeding effect in post-emergence stage, Alopecurus japonicus (Alopecurus japonicus; Dose 15 g/ha)	Weeding effect in post-emergence stage, Echinochloa crusgalli (Echinochloa crusgalli; Dose 30 g/ha)	Weeding effect in post-emergence stage, Setaria viridis (Setaria viridis; Dose 30 g/ha)	Weeding effect in post-emergence stage, Abutilon theophrasti (Abutilon theophrasti; Dose 30 g/ha)	Weeding effect in post-emergence stage, Digitaria sanguinalis (Digitaria sanguinalis; Dose 30 g/ha)	Weeding effect in post-emergence stage, Eleusine indica (Eleusine indica; Dose 30 g/ha)	Weeding effect in post-emergence stage, Alopecurus japonicus (Alopecurus japonicus; Dose 30 g/ha)
CCOC(=O)COC(=O)C(C)O/N=C/c1cc(-n2c(=O)cc(C(F)(F)F)n(C)c2=O)c(F)cc1Cl (stereo not drawn) [Compound 239]	5 (Level 5: growth control rate is above 85%)	5 (Level 5: growth control rate is above 85%)	5 (Level 5: growth control rate is above 85%)	5 (Level 5: growth control rate is above 85%)	5 (Level 5: growth control rate is above 85%)	5 (Level 5: growth control rate is above 85%)	–	–	–	–	–	–
COC(=O)CCOC(=O)C(C)O/N=C/c1cc(-n2c(=O)cc(C(F)(F)F)n(C)c2=O)c(F)cc1Cl (stereo not drawn) [Compound 240]	–	–	–	–	–	–	5 (Level 5: growth control rate is above 85%)	5 (Level 5: growth control rate is above 85%)	5 (Level 5: growth control rate is above 85%)	5 (Level 5: growth control rate is above 85%)	5 (Level 5: growth control rate is above 85%)	5 (Level 5: growth control rate is above 85%)
COC(=O)C(C)OC(=O)C(C)O/N=C/c1cc(-n2c(=O)cc(C(F)(F)F)n(C)c2=O)c(F)cc1Cl (stereo not drawn) [Compound 241]	–	–	–	–	–	–	5 (Level 5: growth control rate is above 85%)	5 (Level 5: growth control rate is above 85%)	5 (Level 5: growth control rate is above 85%)	5 (Level 5: growth control rate is above 85%)	5 (Level 5: growth control rate is above 85%)	5 (Level 5: growth control rate is above 85%)
COC(=O)C(C)(C)OC(=O)C(C)O/N=C/c1cc(-n2c(=O)cc(C(F)(F)F)n(C)c2=O)c(F)cc1Cl (stereo not drawn) [Compound 243]	5 (Level 5: growth control rate is above 85%)	5 (Level 5: growth control rate is above 85%)	5 (Level 5: growth control rate is above 85%)	5 (Level 5: growth control rate is above 85%)	5 (Level 5: growth control rate is above 85%)	5 (Level 5: growth control rate is above 85%)	–	–	–	–	–	–
COC(=O)C(OC)OC(=O)C(C)O/N=C/c1cc(-n2c(=O)cc(C(F)(F)F)n(C)c2=O)c(F)cc1Cl (stereo not drawn) [Compound 245]	–	–	–	–	–	–	5 (Level 5: growth control rate is above 85%)	5 (Level 5: growth control rate is above 85%)	5 (Level 5: growth control rate is above 85%)	5 (Level 5: growth control rate is above 85%)	5 (Level 5: growth control rate is above 85%)	5 (Level 5: growth control rate is above 85%)
